From patent publication US4007179A, “Oxoindanylpropionic acids and process for the preparation thereof” (Sankyo Company Limited, priority 1975, dated 1977) come the findings set out here.

The structures appear in SMILES notation.

Holding throughout (type): in vivo
The nature of experiment [1]: Antipyretic activity: TTG-induced fever test in guinea pigs. To be noted: Cavia porcellus, po, read-out: ID50 Antipyretic. An excerpt:
Antipyretic activity Tested by TTG-induced fever test in guinea pigs [ modified methodof S. Kobayashi, H. Takagi; Jap.

Experiment [2] can be described thus: Anti-inflammatory activity: carrageenin edema test in rats. To be noted: Rattus norvegicus, po, read-out: ID50 Anti-inflammatory. The source says:
Anti-inflammatory activity
Tested by carrageenin edema test in rats [C.
Background: Carrageenan injected into the paw causes an acute inflammation.

Experiment [3] can be described thus: Analgesic activity: thermal pain test in rats. The following applies: Rattus norvegicus, po, read-out: ID50 Analgesic.
The mark [4] stands for this setting: TTG-induced fever test in guinea pigs.

Regarding `CC(C(=O)O)c1ccc2c(c1)CC(C(C)C)C2` (stereo not drawn) [2-(2-Isopropylindan-5-yl)propionic acid], the ED50 in experiment [1] (setting [4]) is 1.8 mg/kg; in experiment [2] (carrageenin edema test in rats) it was 7.1 mg/kg; in experiment [3] (thermal pain test in rats) it was 2.5 mg/kg.

Take `CC(=O)Oc1ccccc1C(=O)O` [Acetylsalicylic acid, reference compound]: the ED50 in experiment [1] was 194 mg/kg; in experiment [2], 133 mg/kg; in experiment [3] it was 81 mg/kg.

In the case of `CCC1Cc2ccc(C(C)C(=O)O)cc2C1` (stereo not drawn) [2-(2-Ethylindan-5-yl)propionic acid], the ED50 is 1.7 mg/kg in experiment [1] (setting [4]), 10.3 mg/kg in experiment [2] (carrageenin edema test in rats) and 10.5 mg/kg in experiment [3] (thermal pain test in rats).
